The values that follow come from patent US7323167B2, “Method of treatment with modified arginine deiminase” (Polaris Group, priority 1997, dated 2008).

Test [1] addresses T1, Mycoplasma hominus arginine deiminase (HOMADIPRO, ATCC 23114), recombinant, expressed in E. coli, SEQ ID NO: 3 (Metamycoplasma hominis, UniProt P41141).
T1 construct: tag not given
Briefly: Kinetic characterization (Km, Vmax, affinity) of recombinant ADI with arginine, quantifying citrulline production. To be noted: about; range given for the enzymes of the three Mycoplasma species; various concentrations of arginine. The class given is biochemical. An excerpt: (§1) Cultures of Mycoplasma arginini (ATCC 23243), Mycoplasma hominus (ATCC 23114) and Mycoplasma arthritides (ATCC 23192) were obtained from the American Type Culture Collection, Rockville, Md.
(§2) Arginine deiminase was cloned from Mycoplasma arginini, Mycoplasma hominus and Mycoplasma arthritides and expressed in E. coli as previously described by S. Misawa et al, J. Biotechnology, 36:145-155 (1994), the disclosure of which is hereby incorporated herein by reference in its entirety. The top amino acid sequence, identified as ADIPROT, is from Mycoplasma arginini; the middle amino acid sequence, identified as ARTADIPRO, is from Mycoplasma arthritides; and the bottom amino acid sequence, identified as HOMADIPRO, is from Mycoplasma hominus. Each of the amino acid sequences are more than 96% conserved. […] The pH optima was determined using a citrate buffer (pH 5-6.5), a phosphate buffer (pH 6.5-7.5) and a borate buffer (pH 7.5-8.5). The Km and Vmax were determined by incubating the enzyme with various concentrations of arginine and quantifying citrulline production. The Km for the various enzymes was about 0.02 to 0.06 μM and the Vmax was about 15-20 μmol/min/mg, the values of which are within standard error of each other.
(§3) The proteins from each of the above three species of Mycoplasma have approximately 95% homology and are readily purified by column chromatography. […]

Test [2] deals with T2, Mycoplasma arginini arginine deiminase (ADIPROT, ATCC 23243), recombinant, expressed in E. coli, SEQ ID NO: 1 (Mycoplasmopsis arginini, UniProt P23793).
T2 construct: made in house; host or cells: E. coli
Described as above. The class given is biochemical. The note with it: about; range given for the enzymes of the three Mycoplasma species; various concentrations of arginine.
Excerpt: as §1, §2, §3

T1 sequence (P41141 whole entry): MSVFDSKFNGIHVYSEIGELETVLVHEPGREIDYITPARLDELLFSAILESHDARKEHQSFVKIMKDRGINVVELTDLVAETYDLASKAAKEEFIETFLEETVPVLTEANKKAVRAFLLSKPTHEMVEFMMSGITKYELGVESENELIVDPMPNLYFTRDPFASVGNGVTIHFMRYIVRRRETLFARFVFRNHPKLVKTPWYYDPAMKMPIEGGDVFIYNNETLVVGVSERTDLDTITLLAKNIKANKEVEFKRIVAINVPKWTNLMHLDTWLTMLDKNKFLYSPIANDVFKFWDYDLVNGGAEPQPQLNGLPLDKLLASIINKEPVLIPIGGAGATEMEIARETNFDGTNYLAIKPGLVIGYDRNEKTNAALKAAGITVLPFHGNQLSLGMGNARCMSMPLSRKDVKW
T2 sequence (P23793 whole entry E126K): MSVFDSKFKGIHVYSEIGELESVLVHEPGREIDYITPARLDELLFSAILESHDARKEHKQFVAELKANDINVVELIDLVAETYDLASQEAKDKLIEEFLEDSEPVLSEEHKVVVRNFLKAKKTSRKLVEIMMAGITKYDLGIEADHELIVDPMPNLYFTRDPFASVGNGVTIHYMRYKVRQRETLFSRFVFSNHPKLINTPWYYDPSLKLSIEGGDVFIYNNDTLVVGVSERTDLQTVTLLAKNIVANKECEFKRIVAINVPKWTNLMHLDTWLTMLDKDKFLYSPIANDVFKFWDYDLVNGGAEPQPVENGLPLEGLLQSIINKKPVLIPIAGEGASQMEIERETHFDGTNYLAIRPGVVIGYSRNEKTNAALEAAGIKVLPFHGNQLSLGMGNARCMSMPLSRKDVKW

For orientation: Vmax means the rate approached at saturating substrate. Regarding `N=C(N)NCCC[C@H](N)C(=O)O` [arginine, L-arginine], the Vmax in test [1] and in test [2] was 15 to 20 µmol/min/mg throughout.
